Test results from patent publication US6228886A, “Nutritional formulations containing water-miscible lipid derivatives as antibacterial agents” (Abbott Laboratories, priority 2000, dated 2001).

Columns and labels:
RSV [1] = assay: In vivo prevention of RSV infection in cotton rats; details: 1000 mg/L Carrageenan in M. Similac®
From the text: Cotton rats have been used as an RSV research animal model for about 20 years. The cotton rat has a similar pathological change in the lung to that observed in human infants when infected by RSV (Prince et al., 1978). […] It has also been observed that the intravenously-administered RSV-IgG has to reach a titer of ≥1:100 concentration to show the preventive effect (Prince et al., 1985). The same serum concentration of RSV-IgG in human infants is protective (Groothuis et al., 1993, 1995). Due to these similarities, the FDA has recommended the cotton rat as an appropriate model for RSV studies.
To have a repeatable RSV nasal and lung infection, a high RSV dose (10^4 pfu/animal) was intra-nasally inoculated to all animals. The inoculum (100 μl) consisted of 50 μl of RSV stock solution and 50 μl of test product. […] In addition, some studies were performed in an infant formula in which the intact protein was replaced with a casein hydrolysate (Alimentum®). All animals consumed the regular rodent chow diet throughout the experimental period. Four days after RSV challenge, all animals were sacrificed. Their lung and nasal tissue were isolated for determination of RSV titers. As a positive control, a 5% RSV-IgG was always used. […]

RSV [2] = details: carrageenan removed from the formulation; cited from earlier work

Carrageenan
RSV titer in Lung (RSV [1]): 3.06 ± 0.16 Log10 PFU/g tissue
RSV titer in Nose (RSV [1]): 3.78 ± 0.47 Log10 PFU/g tissue
anti-RSV activity, previously found (RSV [2]): anti-RSV activity
